Experimental data from patent publication US6703485B2, “Brain and heart cyclic nucleotide gated ion channel compounds and uses thereof” (The Trustees of Columbia University in the City of New York, priority 1997, dated 2004).
Several values for one entry are separate records, joined by “and”; a condition that tells them apart may be missing. Equal entries are not always repeated.

Assays:
mBCNG-1 channel = molecular target: T1, mBCNG-1 channel (Mus musculus, UniProt O88704); type: biochemical
T1 construct: expressed in transfected cells; host or cells: Xenopus oocytes injected with cRNA (pSD64TR vector, SP6 transcript); cell-free inside-out and outside-out patches
T1 sequence (O88704 whole entry): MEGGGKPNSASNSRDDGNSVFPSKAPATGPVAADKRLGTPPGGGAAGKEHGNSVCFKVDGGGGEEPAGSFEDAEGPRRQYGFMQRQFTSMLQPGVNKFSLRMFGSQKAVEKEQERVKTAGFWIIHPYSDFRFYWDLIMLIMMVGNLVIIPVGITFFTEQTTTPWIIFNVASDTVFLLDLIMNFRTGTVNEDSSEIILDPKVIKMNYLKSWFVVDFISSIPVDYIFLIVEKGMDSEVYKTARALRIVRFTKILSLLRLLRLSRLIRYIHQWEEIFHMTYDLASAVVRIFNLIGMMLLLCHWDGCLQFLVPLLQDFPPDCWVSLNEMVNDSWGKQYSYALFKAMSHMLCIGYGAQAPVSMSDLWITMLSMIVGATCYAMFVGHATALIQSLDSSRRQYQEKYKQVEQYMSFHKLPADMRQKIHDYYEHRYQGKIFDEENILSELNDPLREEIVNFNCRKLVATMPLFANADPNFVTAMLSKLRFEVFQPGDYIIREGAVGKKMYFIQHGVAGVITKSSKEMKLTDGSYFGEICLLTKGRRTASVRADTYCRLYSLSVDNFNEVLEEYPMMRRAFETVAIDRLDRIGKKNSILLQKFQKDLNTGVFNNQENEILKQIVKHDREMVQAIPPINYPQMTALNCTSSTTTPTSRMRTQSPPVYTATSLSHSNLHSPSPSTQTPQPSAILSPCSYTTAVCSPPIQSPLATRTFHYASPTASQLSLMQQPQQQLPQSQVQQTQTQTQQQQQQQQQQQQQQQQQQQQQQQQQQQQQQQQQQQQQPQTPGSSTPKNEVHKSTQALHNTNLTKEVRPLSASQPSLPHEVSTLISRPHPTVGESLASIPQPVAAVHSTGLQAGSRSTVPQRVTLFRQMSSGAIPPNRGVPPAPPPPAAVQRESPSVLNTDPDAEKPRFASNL

[1] = molecular target: T2, bovine photoreceptor CNG channels (Bos taurus, UniProt Q00194); settings: Kramer and Tibbs, 1996; cited from earlier work
T2 sequence (Q00194 1-690): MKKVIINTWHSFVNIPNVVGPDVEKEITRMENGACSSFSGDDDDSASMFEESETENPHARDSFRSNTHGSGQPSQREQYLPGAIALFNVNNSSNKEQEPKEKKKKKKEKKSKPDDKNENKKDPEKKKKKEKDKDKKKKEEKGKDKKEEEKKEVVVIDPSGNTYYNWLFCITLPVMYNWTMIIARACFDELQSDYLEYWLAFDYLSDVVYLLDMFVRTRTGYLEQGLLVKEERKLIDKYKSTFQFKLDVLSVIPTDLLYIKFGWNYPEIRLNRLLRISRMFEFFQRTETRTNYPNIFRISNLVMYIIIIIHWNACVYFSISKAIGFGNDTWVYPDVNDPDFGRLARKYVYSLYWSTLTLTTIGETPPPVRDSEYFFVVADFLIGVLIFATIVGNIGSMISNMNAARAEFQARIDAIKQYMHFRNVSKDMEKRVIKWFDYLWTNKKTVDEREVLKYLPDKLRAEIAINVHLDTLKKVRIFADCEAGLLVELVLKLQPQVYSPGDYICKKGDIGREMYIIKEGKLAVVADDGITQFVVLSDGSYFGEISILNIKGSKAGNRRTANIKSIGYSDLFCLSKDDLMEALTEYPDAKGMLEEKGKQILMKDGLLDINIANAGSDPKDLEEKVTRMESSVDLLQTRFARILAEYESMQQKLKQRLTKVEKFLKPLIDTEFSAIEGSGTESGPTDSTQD

[2] = system: Ih in hippocampal neurons; settings: Pedarzani and Storm, 1995; cited from earlier work
Ih in sensory neurons = settings: Ingram and Williams; cited from earlier work
If in sino-atrial node = settings: DiFrancesco and Tortora, 1991; cited from earlier work
Pacemaker channel = settings: myocardial ischemia, Schlack et al., 1998; cited from earlier work

[Ba+2] [Ba]
mean percent inhibition of mBCNG-1 current (mBCNG-1 channel; 1 mM Ba in external solution, outside-out patch, n=3): 0±5%

Nc1nc2c(ncn2[C@@H]2O[C@@H]3COP(O)(=S)O[C@H]3[C@H]2O)c(=O)[nH]1 (stereo partly shown) [Rp-cGMPS]
Effect on channel opening [1]: antagonist of channel opening

Nc1ncnc2c1ncn2[C@@H]1O[C@@H]2COP(=O)(O)O[C@H]2[C@H]1O [cAMP]
cAMP-dependent shift of Ih [2]: 2-3 mV
cAMP-dependent shift of Ih (Ih in sensory neurons): 4-6 mV
cAMP-dependent shift of If (If in sino-atrial node): 10 mV

CCN(c1ccccc1)c1cc(=NC)n(C)c(C)n1.Cl [ZD 7288]
Effect on infarct size (Pacemaker channel): reduce infarct size

[Cl-].[Cs+] [Cs]
% inhibition of mBCNG-1 current (mBCNG-1 channel): 92.4±2.5%
Hill coefficient for inhibition of mBCNG-1 current by Cs (mBCNG-1 channel): ~1 and 1.08
IC50 (mBCNG-1 channel; read-out: IC50 for inhibition of mBCNG-1 current by Cs): ~200 µM and 201 µM

Nc1nc2c(ncn2[C@@H]2O[C@@H]3COP(O)(=S)O[C@H]3[C@H]2O)c(=O)[nH]1 (stereo partly shown) [Sp-cGMPS]
Effect on channel opening [1]: agonist
